Drawing on patent US7091199B1, “Thienoisoxazole phenoxy unsubstituted ethyl and propyl derivatives useful as d4 antagonists” (Aventis Pharmaceuticals Inc., priority 1999, dated 2006), this text covers inhibition in vivo, Ki and inhibition for 26 molecules.

Structures can show the parent of a compound that is named as a salt.

The first assay deals with CD-1 or C57 male mice (MK-801 induced stereotypy). In words: MK-801 Stereotypy in Mice. The format is in vivo. Particulars: Mus musculus, po, 20 mg/kg, read-out: Antag. of MK 801 Stereotypy % Inhib. @ 20 mg/kg. As for the experimental part: Mk-801 dose-dependently induces characteristic stereotypy marked by locomotion and falling behavior. This MK-801 induced behavior can be antagonized by novel neuroleptic agents. This assay can also assess time course effects following drug administration.
CD-1 or C57 male mice are individually placed in activity boxes (8 mice/drug) and allowed to acclimate for 60 minutes. The mice are then administered test compounds either i.p., s.c., or p.o., at 15, 30, or 60 minutes prior to MK-801 (0.2 mg/kg) administration. Mice are observed for the presence of locomotion and falling behaviors 15 minutes following MK-801. For the duration of action studies the test compounds are administered i.p., s.c., or p.o., at 30, 60, 120, 180, and 240 minutes prior to MK-801 administration.
Take `Fc1cccc(CNCCOc2cccc(-c3noc4ccsc34)c2)c1` [Compound 19, (3-fluoro-benzyl)-[2-(3-thieno[2,3-d]isoxazol-3-yl-phenoxy)-ethyl]-amine]: the inhibition in vivo at 20 mg/kg came out at 75%.

Consider `Cc1ccc(CNCCOc2cccc(-c3noc4ccsc34)c2)cc1` [Compound 20, (4-methyl-benzyl)-[2-(3-thieno[2,3-d]isoxazol-3-yl-phenoxy)-ethyl]-amine], for which the inhibition in vivo at 20 mg/kg came to 37.5%.

On to `c1ccc(CNCCOc2cccc(-c3noc4ccsc34)c2)cc1` [Compound 31, benzyl-[2-(3-thieno[2,3-d]isoxazol-3-yl-phenoxy)-ethyl]-amine hydrochloride], for which the inhibition in vivo at 20 mg/kg turned out to be 37.5%.

Take `Clc1ccc(CNCCOc2cccc(-c3noc4ccsc34)c2)cc1` [Compound 18, (4-chloro-benzyl)-[2-(3-thieno[2,3-d]isoxazol-3-yl-phenoxy)-ethyl]-amine]: the inhibition in vivo at 20 mg/kg came out at 37.5%.

Consider `Fc1ccc(CNCCCOc2cccc(-c3noc4ccsc34)c2)cc1` [Compound 3, (4-fluoro-benzyl)-[3-(3-thieno[2,3-d]isoxazol-3-yl-phenoxy)-propyl]-amine], for which the inhibition in vivo at 20 mg/kg came to 37.5%.

In a further assay the target is T1, human D4 receptor (D4.2 sub-type) (Homo sapiens, UniProt P21917, DEL271-302).
T1 sequence (P21917 with tags, fused parts or gaps DEL271-302): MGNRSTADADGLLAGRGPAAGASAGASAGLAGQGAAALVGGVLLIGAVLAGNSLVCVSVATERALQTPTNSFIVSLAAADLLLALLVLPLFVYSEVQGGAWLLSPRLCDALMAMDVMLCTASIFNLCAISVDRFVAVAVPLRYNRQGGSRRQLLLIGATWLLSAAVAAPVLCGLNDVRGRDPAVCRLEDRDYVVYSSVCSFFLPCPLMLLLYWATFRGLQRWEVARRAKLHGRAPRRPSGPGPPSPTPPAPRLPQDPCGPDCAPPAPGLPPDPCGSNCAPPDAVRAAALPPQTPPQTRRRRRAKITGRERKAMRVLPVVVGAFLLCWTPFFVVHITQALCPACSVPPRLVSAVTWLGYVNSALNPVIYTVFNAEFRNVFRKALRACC
As to the kind of experiment: D4 receptor binding assay (3H-spiperone displacement). The following applies: 3H-spiperone 0.25 nM, HEK cell membranes, human D4.2; read-out: D4 RBA Ki. The method, then: D4 receptor-binding affinities of the compounds were evaluated according to their ability to reduce binding of ^3H-spiperone as compared to the reference compound clozapine. The potency of the test compound to reduce ^3H-spiperone binding directly correlated to its binding affinity for the receptor.
[…] (human embryonic kidney) cells stably transfected with human D4 receptor (D4.2 sub-type) were grown in NUNC cell factories for 5 days (75% confluency) without a media change and removed with versene (approximately 19 mg of cells per cell factory tray). The cells were then centrifuged in a Sorval centrifuge for 10 min, 5000 rpm (GS3 rotor) and the pellets quickly frozen in liquid nitrogen and stored at −80° C. until used in binding assay. When used in the assay, cells were thawed on ice for 20 min and then 10 mL of incubation buffer (50 mM Tris, 1 mM EDTA, 4 mM MgCl2, 5 mM KCl, 1.5 mM CaCl2, 120 mM NaCl, pH 7.4) was added. The cells were then vortexed to resuspend pellet and homogenized with a Kinematica, CH-6010 Kriens-LU, homogenizer for 15 seconds at setting 7. Concentration of receptor protein was determined using the Pierce BCA assay.
The incubation was started by the addition of 100 μl (50 μg protein) membrane homogenate to a solution of 300 μl incubation buffer and 100 μl (0.25 nM final conc.) ^3H-spiperone (90 Ci/mmol, Amersham, diluted in borosilicate glass vial) in 96-well polypropylene plates (1 mL per well). The plates were vortexed and incubated at room temperature for 90 minutes. The binding reaction was stopped by filtering using a Packard Harvester. The samples were filtered under vacuum over glass fibre filter plates (Whatman GF/B) presoaked for 2 hours in 0.3% polyethylenimine (PEI) in 50 mM Tris buffer (pH 7.4). The filters were then washed 6 times with 7 mL ice cold 50 mM Tris buffer (pH 7.4). The filter plates were dried overnight and 35 μl of Microscint-O (Packard) was added. The plates were sealed and counted in the Packard Top Count (3 minutes per well).
The incubation was started by the addition of 100 μl (50 μg protein) membrane homogenate to a solution of 200 μl incubation buffer, 100 μl ^3H-spiperone (90 Ci/mmol, Amersham, diluted in borosilicate glass vial to 0.25 nM final conc.) and 100 μl (30 μM final conc.) of fresh dopamine (Research Biochemicals Inc., light protected and dissolved in incubation buffer) in 96-well polypropylene plates (1 mL per well). The plates were vortexed and incubated at room temperature for 90 minutes at which time the binding reaction was stopped by filtering. The filters were washed and counted using the same procedure as in the total binding assay described above to give the non-specific binding value (NSB).
The incubation was started by the addition, in 96-well polypropylene plates (1 mL per well), of 100 μl (50 μg protein) membrane homogenate to a solution of 200 μl incubation buffer, 100 μl (0.25 nM final conc.) ^3H-spiperone (90 Ci/mmol, Amersham, diluted in borosilicate glass vial) and 100 μl of test compound that was prepared from 1 mM stock dissolved in DMSO and stored at −20° C. in polypropylene cryogenic storage vials until dilution in incubation buffer in 96-well polypropylene plates. The plates were vortexed and incubated at room temperature for 90 minutes at which time the binding reaction was stopped by filtering. The filters were washed and counted using the same procedure as in the total binding assay described above to give the displacement binding value (BD).
The test compounds were initially assayed at 1 and 0.1 μM and then at a range of concentrations chosen such that the middle dose would cause about 50% inhibition of ^3H-spiperone binding. Specific binding in the absence of test compound (B0) was the difference of total binding (BT) minus non-specific binding (NSB) and similarly specific binding (in the presence of test compound) (B) was the difference of displacement binding (BD) minus non-specific binding (NSB). […]
What is called Ki is a dissociation constant, usually derived from enzyme kinetics or from competition with a known ligand. For `Fc1cccc(CNCCOc2cccc(-c3noc4ccsc34)c2)c1` [Compound 19, (3-fluoro-benzyl)-[2-(3-thieno[2,3-d]isoxazol-3-yl-phenoxy)-ethyl]-amine], the Ki amounted to 15 nM.

For the molecule `Cc1ccc(CNCCOc2cccc(-c3noc4ccsc34)c2)cc1` [Compound 20, (4-methyl-benzyl)-[2-(3-thieno[2,3-d]isoxazol-3-yl-phenoxy)-ethyl]-amine], the Ki came to 5.27 nM.

For `Clc1ccc(CNCCOc2cccc(-c3noc4ccsc34)c2)cc1` [Compound 18, (4-chloro-benzyl)-[2-(3-thieno[2,3-d]isoxazol-3-yl-phenoxy)-ethyl]-amine], the Ki was determined as 34 nM.

On to `Fc1ccc(CNCCCOc2cccc(-c3noc4ccsc34)c2)cc1` [Compound 3, (4-fluoro-benzyl)-[3-(3-thieno[2,3-d]isoxazol-3-yl-phenoxy)-propyl]-amine], for which the Ki is 17 nM.

As for `c1cc(OCCNC2Cc3ccccc3C2)cc(-c2noc3ccsc23)c1` [Compound 46, indan-2-yl-[2-(3-thieno[2,3-d]isoxazol-3-yl-phenoxy)-ethyl]-amine hydrochloride], the Ki came out at 36.1 nM.

Regarding `c1cc(OCCCNCc2cccs2)cc(-c2noc3ccsc23)c1` [Compound 6, [3-(3-thieno[2,3-d]isoxazol-3-yl-phenoxy)-propyl]-thiophen-2-ylmethylamine], the Ki was 27 nM.

For the molecule `Fc1ccc(CNCCCOc2cccc(-c3noc4ccsc34)c2)cc1F` [Compound 42, (3,4-difluoro-benzyl)-[3-(3-thieno[2,3-d]isoxazol-3-yl-phenoxy)-propyl]-amine], the Ki came out at 47 nM.

Take `Cc1ccc(CNCCCOc2cccc(-c3noc4ccsc34)c2)cc1` [Compound 39, (4-methyl-benzyl)-[3-(3-thieno[2,3-d]isoxazol-3-yl-phenoxy)-propyl]-amine]: the Ki is 20 nM.

For `Fc1ccc(CNCCOc2cccc(-c3noc4ccsc34)c2)cc1F` [Compound 37, (3,4-difluoro-benzyl)-[2-(3-thieno[2,3-d]isoxazol-3-yl-phenoxy)-ethyl]-amine], the Ki amounted to 32 nM.

In the case of `COc1cccc(CNCCOc2cccc(-c3noc4ccsc34)c2)c1` [Compound 36, (3-methoxy-benzyl)-[2-(3-thieno[2,3-d]isoxazol-3-yl-phenoxy)-ethyl]-amine], the Ki is 13 nM.

Turning to `COc1ccc(CNCCCOc2cccc(-c3noc4ccsc34)c2)cc1` [Compound 5, (4-methoxy-benzyl)-[3-(3-thieno[2,3-d]isoxazol-3-yl-phenoxy)-propyl]-amine], the inhibition constant (Ki) stood at 92 nM.

Staying with this assay, now noted: @ 1 μM test compound; 3H-spiperone binding; read-out: D4 RBA % Inhibition (@ 1 μM).
In general, inhibition refers to the share of the control response that was lost under treatment. As for `c1ccc(CNCCOc2cccc(-c3noc4ccsc34)c2)cc1` [Compound 31, benzyl-[2-(3-thieno[2,3-d]isoxazol-3-yl-phenoxy)-ethyl]-amine hydrochloride], the inhibition at 1 µM came to 100%.

Consider `c1cc(OCCCNC2CCc3ccccc32)cc(-c2noc3ccsc23)c1` (stereo not shown) [Compound 43], for which the inhibition at 1 µM came out at 94%.

Take `c1cc(OCCCNC23CC4CC(CC(C4)C2)C3)cc(-c2noc3ccsc23)c1` [Compound 53, adamantan-1-yl-[3-(3-thieno[2,3-d]isoxazol-3-yl-phenoxy)-propyl]-amine]: the inhibition at 1 µM is 94%.

For `Fc1ccc(CNCCOc2cccc(-c3noc4ccsc34)c2)c(F)c1` [Compound 49, (2,4-difluoro-benzyl)-[2-(3-thieno[2,3-d]isoxazol-3-yl-phenoxy)-ethyl]-amine], the inhibition at 1 µM stood at 95%.

Consider `c1ccc(N2CCN(CCOc3cccc(-c4noc5ccsc45)c3)CC2)cc1` [Compound 28, 3-{3-[2-(4-phenyl-piperazin-1-yl)-ethoxy]-phenyl}-thieno[2,3-d]isoxazole], for which the inhibition at 1 µM is 78%.

For the molecule `c1cc(OCCNC2CCc3ccccc32)cc(-c2noc3ccsc23)c1` (stereo not shown) [Compound 38, indan-1-yl-[2-(3-thieno[2,3-d]isoxazol-3-yl-phenoxy)-ethyl)-amine], the inhibition at 1 µM amounted to 95%.

With `FC(F)(F)c1ccccc1CNCCOc1cccc(-c2noc3ccsc23)c1` [Compound 51, [2-(3-thieno[2,3-d]isoxazol-3-yl-phenoxy)-ethyl]-(2-trifluoromethylbenzyl)-amine], the inhibition at 1 µM turned out to be 58%.

With `FC(F)(F)c1ccc(CNCCOc2cccc(-c3noc4ccsc34)c2)cc1` [Compound 52, [2-(3-thieno[2,3-d]isoxazol-3-yl-phenoxy)-ethyl]-(4-trifluoromethylbenzyl)-amine], the inhibition at 1 µM amounted to 96%.

With `FC(F)(F)c1ccccc1CNCCCOc1cccc(-c2noc3ccsc23)c1` [Compound 57, [3-(3-thieno[2,3-d]isoxazol-3-yl-phenoxy)-propyl]-(2-trifluoromethylbenzyl)-amine], the inhibition at 1 µM was 46%.

In the case of `c1cc(OCCN2CCCCC2)cc(-c2noc3ccsc23)c1` [Compound 48, 3-[3-(2-piperidin-1-yl-ethoxy)-phenyl]-thieno[2,3-d]isoxazole], the inhibition at 1 µM stood at 83%.

In the case of `c1cncc(CNCCOc2cccc(-c3noc4ccsc34)c2)c1` [Compound 25, pyridin-3-ylmethyl-[2-(3-thieno[2,3-d]isoxazol-3-yl-phenoxy)-ethyl]-amine], the inhibition at 1 µM amounted to 93%.

In the case of `Fc1ccccc1CNCCOc1cccc(-c2noc3ccsc23)c1` [Compound 34, (2-fluoro-benzyl)-[2-(3-thieno[2,3-d]isoxazol-3-yl-phenoxy)-ethyl]-amine], the inhibition at 1 µM came out at 93%.

Take `Fc1cccc(F)c1CNCCCOc1cccc(-c2noc3ccsc23)c1` [Compound 56, (2,6-difluoro-benzyl)-[3-(3-thieno[2,3-d]isoxazol-3-yl-phenoxy)-propyl]-amine]: the inhibition at 1 µM is 64%.

On to `Clc1ccccc1CNCCCOc1cccc(-c2noc3ccsc23)c1` [Compound 40, (2-chloro-benzyl)-[3-(3-thieno[2,3-d]isoxazol-3-yl-phenoxy)-propyl]-amine], for which the inhibition at 1 µM is 89%.

As for `c1cc(OCCN2CCc3ccccc3C2)cc(-c2noc3ccsc23)c1` [Compound 29, 2-[2-(3-thieno[2,3-d]isoxazol-3-yl-phenoxy)-ethyl]-1,2,3,4-tetrahydroisoquinoline], the inhibition at 1 µM worked out at 60%.
